# In patent US9744156B2, “Methods and compositions for enhanced transungual delivery of AR-12” (Arno Therapeutics, Inc., priority 2015, dated 2017):
# Read-outs that look alike come from different tables or passages of the source.
# What was measured:
# [1] = In vitro permeation across cadaver nail plate in modified Franz diffusion cell; type: in vitro ADME, human
# Procedure: The permeation study was performed in Franz diffusion cells fitted with nail adapter. The finger nails (from all fingers except the little finger) of human cadavers obtained from ScienceCare were used for the transport studies. The nail plates were cleaned with water, and nail plates of 400-450 micron thickness were selected and visually inspected for presence of any cracks or pores. After mounting on the diffusion cell, the donor as well as the receiver compartments were filled with phosphate buffered saline […] and allowed to equilibrate for 3 hours for complete hydration of the nail plate. The electrical resistivity across the nail plate was measured prior to removal of the buffer to check the intactness of the nail plate after hydration.
# The permeation testing was performed using modified Franz diffusion cell. The cell consisted of two compartments: a (1) a donor compartment for placing the drug solution/formulation and (2) a receiver compartment containing the buffer in which the drug diffuses. A nail holder is placed between the two compartments. The nail holder is curved to accommodate the contour of nail plate and secures the nail between the upper and lower part of the holder.
# The donor compartment was filled with 500 microliters of drug solution (50 mg/ml) prepared in ethyl alcohol. For the control sample, no enhancer was incorporated. In the test cells, the enhancer was incorporated (5% PEG or 5% dexpanthenol or both). The donor compartment was covered with parafilm to minimize the loss of solvent. The drug solution was removed every 2 hours, the donor compartment was washed two times with 500 microliters of alcohol, and fresh drug solution (50 mg/ml) was placed in the donor compartment. […] The receiver compartment fluid was sampled at predetermined time points (e.g., 0, 12, 24, 36, 48, 60, 72, 84, 96, 108, 120, 132, 144, 156, 192, 204, […]) and the amount of drug permeated across the nail plate was quantitated by high pressure liquid chromatography.
# [2] = 5% enhancer in 5% w/v AR-12 solution in ethanol, 24 h; FIG. 1
molecule,measurement,setting,value
"NCC(=O)Nc1ccc(-n2nc(C(F)(F)F)cc2-c2ccc3c(ccc4ccccc43)c2)cc1 [AR-12, 2-amino-N-(4-(5-(phenanthren-2-yl)-3-(trifluoromethyl)-1H-pyrazol-1-yl)phenyl)acetamide]",amount of drug permeated in a one week period across the nail plate,"[1]; control, no enhancer, drug solution 50 mg/ml in ethyl alcohol, one week",658 ± 306 ng
CC(C)(CO)[C@@H](O)C(=O)NCCCO [dexpanthenol],suitability as enhancer for trans-ungual delivery of AR-12 (AR-12 accumulated in nail plate),[2],preferred enhancers
same,enhancement of permeation flux of AR-12 across the nail plate,"[1]; 5% enhancer in AR-12 solution (50 mg/ml in ethyl alcohol) versus control without enhancer, one week, FIG. 2",four fold
polyethylene glycol 400 [PEG-400],enhancement of permeation flux of AR-12 across the nail plate,[1],about six fold
